Results on 9 molecules are retold here after patent US6254882A, “Methods and compositions for treating pulmonary disorders using optically pure (S)--salmeterol” (Sepracor Inc., priority 1997, dated 2001).

For data set [1], the system named is isolated guinea pig tracheal strips. Kind of data set: Relaxation of histamine-contracted isolated guinea pig tracheal strips. The arrangement: species or system guinea pig (male Hartley). Particulars: for EC50: Cavia porcellus, % of maximum relaxation by 1 mM papaverine, tested up to 1000 nM, r(log-lin) = 0.9453-0.9968, (S)-salmeterol extrapolated from three data points, read-out: EC50 Tracheal Relaxation, determined by linear regression of percent maximum response.

In data set [2] the test system is isolated guinea pig right atria. As to the kind of experiment: Chronotropic effect on isolated guinea pig right atria (atrial rate). The arrangement: species or system guinea pig (male Hartley). The conditions noted are these: for EC50: Cavia porcellus, % of rate produced by 1 μM forskolin, tested up to 1000 nM, r(log-lin) = 0.9453-0.9968, read-out: EC50 Atrial Rate, determined by linear regression of percent maximum response.

The conditions of data set [3]: as described in the PDR, even by inhalation; cited from earlier work.
Data set [4] addresses human β1 AR (Homo sapiens, UniProt P08588). As to the kind of experiment: Competitive binding to human β1-adrenergic receptor ([125I]iodopindolol, Sf9 cell membranes). Particulars: radioligand [125I]iodopindolol; read-out: Kd for radioligand binding to human β1 ARs.
The target of data set [5] is human β2 AR (Homo sapiens, UniProt P07550). Kind of data set: Competitive binding to human β2-adrenergic receptor ([125I]iodopindolol, Sf9 cell membranes). The conditions noted are these: radioligand [125I]iodopindolol; read-out: Kd for radioligand binding to human β2 ARs.
Chain of human β2 AR (P07550 whole entry): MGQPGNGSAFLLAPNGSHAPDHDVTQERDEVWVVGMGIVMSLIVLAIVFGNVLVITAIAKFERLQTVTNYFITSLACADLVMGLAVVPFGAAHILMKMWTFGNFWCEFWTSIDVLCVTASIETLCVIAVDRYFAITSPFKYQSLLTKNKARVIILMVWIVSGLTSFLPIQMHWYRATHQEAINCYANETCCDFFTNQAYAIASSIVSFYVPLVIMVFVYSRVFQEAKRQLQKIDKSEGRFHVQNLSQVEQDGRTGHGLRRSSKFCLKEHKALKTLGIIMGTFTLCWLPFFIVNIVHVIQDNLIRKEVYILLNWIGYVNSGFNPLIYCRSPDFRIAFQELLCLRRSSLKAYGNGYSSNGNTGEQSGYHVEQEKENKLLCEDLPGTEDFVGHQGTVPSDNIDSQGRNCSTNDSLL

Chain of human β1 AR (P08588 whole entry): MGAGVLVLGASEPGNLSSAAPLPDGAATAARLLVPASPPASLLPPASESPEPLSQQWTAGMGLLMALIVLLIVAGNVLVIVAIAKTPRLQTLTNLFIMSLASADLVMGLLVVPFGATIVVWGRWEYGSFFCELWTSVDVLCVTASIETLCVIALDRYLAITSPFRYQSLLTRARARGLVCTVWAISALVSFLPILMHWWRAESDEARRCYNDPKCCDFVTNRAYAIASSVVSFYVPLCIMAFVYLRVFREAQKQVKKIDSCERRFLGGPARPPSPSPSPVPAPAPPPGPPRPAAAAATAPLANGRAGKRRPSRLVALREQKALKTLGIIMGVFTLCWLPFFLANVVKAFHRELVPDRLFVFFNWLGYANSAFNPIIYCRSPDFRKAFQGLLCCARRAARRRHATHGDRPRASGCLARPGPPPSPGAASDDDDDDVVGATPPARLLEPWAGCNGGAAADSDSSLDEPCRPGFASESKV

For `CC(C)(C)NCC(O)c1ccc(O)c(CO)c1` (racemic) [(RS)-Albuterol], the EC50 was 673 nM in data set [1] and 272 nM in data set [2].
Take `OCc1cc(C(O)CNCCCCCCOCCCCc2ccccc2)ccc1O` (racemic) [(RS)-Salmeterol, 4-hydroxy-α^1 - [[[6(4-phenylbutoxy)-hexyl]amino]methyl]-1,3-benzenedimethanol]: the values for the EC50 in data set [1] and in data set [2] were 273 nM and 3520 nM, respectively. Moreover, the adverse effects entry in data set [3] is “tachycardia, palpitations, urticaria, angioedema, rash, bronchospasms, headache, tremors, nervousness, and paradoxical bronchospasms”.
As for `CC(C)(C)NC[C@H](O)c1ccc(O)c(CO)c1` [(R)-Albuterol], the EC50 was 747 nM in data set [1] and 177 nM in data set [2]. For the same molecule, in data set [1] (relative to (S)-salmeterol), the “potency for tracheal relaxation relative to (S)-salmeterol” value is “approximately four”.
Consider `OCc1cc([C@@H](O)CNCCCCCCOCCCCc2ccccc2)ccc1O` [(R)-Salmeterol], for which the EC50 was 149 nM in data set [1] and 1730 nM in data set [2].
Take `CC(C)(C)NC[C@@H](O)c1ccc(O)c(CO)c1` [(S)-Albuterol]: the values for the EC50 in data set [1] and in data set [2] were 100000 nM and greater than 10000 nM, respectively.
With `OCc1cc([C@H](O)CNCCCCCCOCCCCc2ccccc2)ccc1O` [(S)-Salmeterol, S enantiomer of 4-hydroxy-α^1 - [[[6(4-phenylbutoxy)-hexyl]amino]methyl]-1,3-benzenedimethanol], the EC50 in data set [1] was 3150 nM. Also, in data set [1] (extrapolated from three data points), the “potency for tracheal relaxation compared with (S,S)-formoterol” value is recorded as “equivalent in potency”. Besides, in data set [1] (in words), the “efficacy with respect to tracheal relaxation” value was “full efficacy could be achieved” and the “potency for tracheal relaxation compared with racemic formoterol or its (R,R)-enantiomer” value was “significantly less potent”. For the same molecule, in data set [2] (in words), the “effect on atrial rate compared with vehicle control” value is “essentially the same effect on atrial rate as the vehicle control”.
With `CC(C)NC[C@H](O)COc1cccc2[nH]cc(I)c12` [[^125 l] iodopindolol], the Kd in data set [4] was found to be 2 nM; in data set [5], 0.02 nM.
On to `C=C[C@@]1(C)CC(=O)[C@]2(O)[C@@]3(C)[C@@H](O)CCC(C)(C)[C@@H]3[C@H](O)[C@H](OC(C)=O)[C@@]2(C)O1` [forskolin], for which the “rate of spontaneous contraction of right atria” value in data set [2] (1 μM forskolin, basal roughly 140-170 bpm) is 195-250 bpm.
Consider `COc1ccc(Cc2nccc3cc(OC)c(OC)cc23)cc1OC` [papaverine], for which, in data set [1] (1 mM papaverine), the “relaxation of histamine-contracted tracheal strips” value is “complete relaxation”.
